In patent publication US8580751B2, “Esterified α-galactosylceramide” (Riken, priority 2008, dated 2013):

What was measured:
human NKT cells = settings: human system; cited from earlier work
NKT cells [1] = settings: series of synthetic analogs of α-galactosylceramide; cited from earlier work
IL-4 = IL-4 content in serum after intraperitoneal administration of synthetic glycolipid to mouse (Cytometric bead array system); type: in vivo; settings: 100 μg/kg body weight intraperitoneally, C57BL/6 mice, 12 hr (compounds 23, 24) or 3, 6, 12 hr (compound 33) after administration
Experimental: (§1) A 1 mg/mL dimethyl sulfoxide (DMSO) solution was prepared for each of α-GalCer, compound 23 and compound 24. The solutions were diluted with saline (manufactured by Otsuka Pharmaceutical Co., Ltd.) containing 0.5% Tween 20 (Bio-Rad) such that the dose would be 100 μg/kg body weight when 200 μL was intraperitoneally administered to one mouse.
(§2) Each of the prepared solutions (200 μL) of compounds 23 and 24 was intraperitoneally injected to C57BL/6 mice (2 per group). α-GalCer was used as a control substance, and 200 μL of α-GalCer solution prepared to a dose of 100 μg/kg body weight according to a similar method was injected intraperitoneally. A group administered with a medium (200 μL of saline containing 0.5% Tween 20) was taken as a negative control. The blood (80 μL) was taken from the orbital plexus venosus after the lapse of 6, 12 and 24 hr from the administration, and the serum was prepared.
(§3) The content of IFN-γ in the serum after lapse of 6, 12 and 24 hr from the administration was measured by sandwich ELISA (ENDOGEN). In addition, the content of IL-4 in the serum after lapse of 12 hr from the administration was measured by Cytometric bead array system (BD Biosciences), which is one kind of the ELISA method.
(§4) Using α-GalCer and compound 33, and according to a method similar to the above-mentioned Experimental Example 1, the blood (80 μL) was taken from the orbital plexus venosus after the lapse of 3, 6, 12, 24, 36, 48 and 60 hr from the administration, and the serum was prepared.
(§5) The content of IFN-γ in the serum after lapse of 3, 6, 12, 24, 36, 48 and 60 hr from the administration was measured by a method similar to the above-mentioned Experimental Example 1. In addition, the content of IL-4 in the serum after lapse of 3, 6 and 12 hr from the administration was measured by a method similar to the above-mentioned Experimental Example 1.

IFN-γ = IFN-γ content in serum after intraperitoneal administration of synthetic glycolipid to mouse (sandwich ELISA); type: in vivo; settings: 100 μg/kg body weight intraperitoneally, C57BL/6 mice, 6-24 hr (compounds 23, 24) or 3-60 hr (compound 33) after administration
Experimental: as §1, §2, §3, §4, §5

NKT cells [2] = settings: cited from earlier work

| Compound | activity on human NKT cells in vitro (human NKT cells) | production of IL-4 as compared to α-GalCer (IL-4) | production of IFN-γ as compared to α-GalCer (IFN-γ) | also measured |
| --- | --- | --- | --- | --- |
| CCCCCCCCCCCCCCCCCCCCCCCCCC(=O)N[C@@H](CC[C@H]1OC(CO)[C@H](O)C(O)C1O)[C@H](O)[C@H](O)CCCCCCCCCCCCCC (stereo partly drawn) [α-C-GalCer] | very weak activity | – | – | – |
| CCCCCCCCCCCCCCCCCCCCCCCCCC(=O)N[C@@H](CO[C@H]1OC(CO)[C@H](O)C(O)C1O)[C@H](O)[C@H](O)CCCCCCCCCCCCCC (stereo partly drawn) [α-GalCer] | – | – | – | immunostimulatory activity (NKT cells [1]): induces the strongest activity |
| CCCCCCCCCCCCCCCCCCCCCCCCCC(=O)O[C@@H](CO[C@H]1O[C@H](COC)[C@H](O)[C@H](O)[C@H]1O)[C@H](O)[C@H](O)CCCCCCCCCCCCCC [Compound 33, (2S,3R,4R)-3,4-dihydroxy-2-hexacosanoyloxyoctadecyl 6-O-methyl-α-D-galactopyranoside] | – | lower | equivalent or higher | – |
| CCCCCCCCCCCCCCCCCCCCCCCCCC(=O)N[C@@H](CO[C@H]1CC(CO)[C@H](O)C(O)C1O)[C@H](O)[C@H](O)CCCCCCCCCCCCCC (stereo partly shown) | strong activity | – | – | IFN-γ production by NKT cells (NKT cells [2]): strongly induces |
| CCCCCCC#CCCCCCC[C@@H](O)[C@@H](O)[C@H](CO[C@H]1O[C@H](CO)[C@H](O)[C@H](O)[C@H]1O)OC(=O)CCCCCCCCCCCCCCCCCCCCCCCCC [Compound 23, (2S,3R,4R)-3,4-dihydroxy-2-hexacosanoyloxy-11-octadecyn-1-yl α-D-galactopyranoside] | – | lower | equivalent or higher | – |
| CCCCCCCCCCCCCCCCCCCCCCCCCC(=O)O[C@@H](CO[C@H]1O[C@H](CO)[C@H](O)[C@H](O)[C@H]1O)[C@H](O)[C@H](O)CCCCCCCCCCCCCC [Compound 24, (2S,3R,4R)-3,4-dihydroxy-2-hexacosanoyloxyoctadecyl α-D-galactopyranoside] | – | lower | equivalent or higher | – |
